From patent US5684039A, “Chroman-2-ylmethylamino derivatives” (American Home Products Corporation, priority 1996, dated 1997)

Experiments:
α1 = α1 (no method described); type: binding
dopamine D2 receptor [1] = target: T1, dopamine D2 receptor (Rattus norvegicus, UniProt P61169); experiment: Ratio Ant/Ag (intrinsic activity from low-affinity/high-affinity agonist state); type: binding; settings: Spiper. IC50 / Quin. IC50
Excerpt: Efforts to induce antipsychotic activity with dopamine autoreceptor agonists have been successful (Corsini et al. Adv. Biochem. […] […] et at. […] A method for determining intrinsic activity at the dopamine D2 receptor was recently reported [Lahti et al., Mol. Pharm. […] Intrinsic activity is predicted using the ratio of the "low-affinity agonist" (LowAg) state of the receptor and the "high-affinity agonist" ([…]) state of the receptor, […]. These ratios correlate with the agonist, partial agonist, and antagonist activities of a given compound, which activities characterize a compounds ability to elicit an antipsychotic effect.

dopamine autoreceptor = target: T2, dopamine autoreceptor (Rattus norvegicus, UniProt P61169); experiment: 3H-quinpirole (Quin.) binding, affinity for the dopamine autoreceptor, homogenized rat striatal brain tissue
T2 construct: homogenized rat striatal brain tissue; from tissue; host or cells: rat striatal brain tissue, homogenized

dopamine D2 receptor [2] = target: T1, dopamine D2 receptor; experiment: 3H-spiroperidol (Spiper.) binding, affinity for the dopamine D-2 receptor, homogenized limbic brain tissue; parameters: homogenized limbic brain tissue; from tissue; host or cells: limbic brain tissue, homogenized

T2 sequence (P61169 whole entry): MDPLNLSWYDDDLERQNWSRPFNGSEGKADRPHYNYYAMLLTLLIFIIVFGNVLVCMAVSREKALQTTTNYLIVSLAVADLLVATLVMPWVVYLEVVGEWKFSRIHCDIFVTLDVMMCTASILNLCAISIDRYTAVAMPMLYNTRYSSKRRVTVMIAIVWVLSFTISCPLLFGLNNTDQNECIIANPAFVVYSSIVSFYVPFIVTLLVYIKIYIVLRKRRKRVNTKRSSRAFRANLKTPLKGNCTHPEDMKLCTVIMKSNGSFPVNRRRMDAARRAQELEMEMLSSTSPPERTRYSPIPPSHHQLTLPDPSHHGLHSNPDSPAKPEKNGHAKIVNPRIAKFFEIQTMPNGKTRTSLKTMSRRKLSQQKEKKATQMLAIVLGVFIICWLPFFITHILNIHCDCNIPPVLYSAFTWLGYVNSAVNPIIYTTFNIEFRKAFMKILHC
T1 sequence (P61169 whole entry): as above

Compound | IC50 (α1) | Ratio Ant/Ag (dopamine D2 receptor [1]) | IC50 (dopamine autoreceptor) | IC50 (dopamine D2 receptor [2])
CCCNCC1CCc2ccc(O)cc2O1 (centres unmarked) | 1160 nM |  |  | 
CCCN(CCC)CC1CCc2ccc(O)cc2O1 (centres unmarked) |  | 88 | 102 nM | 8960 nM
CCCCNCC1CCc2ccc(OC)cc2O1 (centres unmarked) |  | 32 | 733 nM | 23600 nM
CCCCCCNCC1CCc2ccc(O)cc2O1 (centres unmarked) | 221 nM |  |  | 
COc1ccc2c(c1)OC(CNCCC(C)C)CC2 (centres unmarked) |  | 32 | 831 nM | 26500 nM
